Patent EP0640606B1, “Thienopyrimidine derivatives, their production and use” (TAKEDA CHEMICAL INDUSTRIES, LTD., priority 1993, dated 1995)

Assays:
[1] = target: T1, Endothelin-B Receptor (Bos taurus, UniProt P28088); test: Endothelin Receptor Assay, [125I]endothelin-1 binding to bovine cerebral membrane fraction; settings: 25°C for 60 minutes, concentration wherein PMB was 50%
T1 construct: a bovine cerebral membrane fraction for an endothelin-B receptor assay; from tissue; host or cells: bovine cerebral membrane fraction
T1 sequence (P28088 27-441): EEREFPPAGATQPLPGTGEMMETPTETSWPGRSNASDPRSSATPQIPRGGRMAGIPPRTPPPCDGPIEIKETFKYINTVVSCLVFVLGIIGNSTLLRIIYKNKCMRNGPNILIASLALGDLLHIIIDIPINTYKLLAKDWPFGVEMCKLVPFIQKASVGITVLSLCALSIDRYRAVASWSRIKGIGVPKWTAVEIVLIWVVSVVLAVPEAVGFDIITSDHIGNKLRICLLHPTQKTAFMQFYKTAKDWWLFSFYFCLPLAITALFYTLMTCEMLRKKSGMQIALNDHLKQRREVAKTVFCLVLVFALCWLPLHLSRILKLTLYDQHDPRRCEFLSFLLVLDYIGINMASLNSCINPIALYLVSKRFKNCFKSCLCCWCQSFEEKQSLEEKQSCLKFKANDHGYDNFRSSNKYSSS
Description: (§1) A pig ventricular muscle membrane fraction for an endothelin-A receptor assay and a bovine cerebral membrane fraction for an endothelin-B receptor assay were diluted with an assay buffer [comprising 20 mM of Tris-HCl, 2 mM of EGTA (ethylene glycol bis(2-aminoethyl ether)tetraacetic acid), 5 mM of magnesium acetate, 0.1% of BSA (bovine serum albumin), 0.03% of NaN3, 0.5 mM of PMSF (phenylmethylsulfonyl fluoride), 20 micrograms/ml of leupeptin, 4 micrograms/ml of E-64 (manufactured by the Peptide Institute, Japan) and 1 microgram/ml of pepstatin; pH 7.2] to 12 µg/ml and 180 µg/ml, respectively.
(§2) To each 100 microliter of them was added 5 nM [^125I] endothelin-1 (2 microliters). A solution (3 microliters) of the sample was added and the mixture was incubated at 25°C for 60 minutes. In order to measure the maximum binding (B0) and the nonspecific bonding (NSB), a lot to which dimethyl sulfoxide (3 microliters) or a solution (3 microliters) of 10^-5M of endothelin in dimethyl sulfoxide was added was incubated as well. […] The radioactivity of the filter was counted by a γ -counter and a calculation was conducted in accordance with the following formula (1) whereby a percent maximum binding (hereinafter, referred to as PMB) was determined. […]

[2] = target: T2, Endothelin-A Receptor (Sus scrofa, UniProt Q29010); test: Endothelin Receptor Assay, [125I]endothelin-1 binding to pig ventricular muscle membrane fraction; settings: 25°C for 60 minutes, concentration wherein PMB was 50%, read-out: IC50 Endothelin-A Receptor (pigs)
T2 construct: A pig ventricular muscle membrane fraction for an endothelin-A receptor assay; from tissue; host or cells: pig ventricular muscle membrane fraction
T2 sequence (Q29010 21-427): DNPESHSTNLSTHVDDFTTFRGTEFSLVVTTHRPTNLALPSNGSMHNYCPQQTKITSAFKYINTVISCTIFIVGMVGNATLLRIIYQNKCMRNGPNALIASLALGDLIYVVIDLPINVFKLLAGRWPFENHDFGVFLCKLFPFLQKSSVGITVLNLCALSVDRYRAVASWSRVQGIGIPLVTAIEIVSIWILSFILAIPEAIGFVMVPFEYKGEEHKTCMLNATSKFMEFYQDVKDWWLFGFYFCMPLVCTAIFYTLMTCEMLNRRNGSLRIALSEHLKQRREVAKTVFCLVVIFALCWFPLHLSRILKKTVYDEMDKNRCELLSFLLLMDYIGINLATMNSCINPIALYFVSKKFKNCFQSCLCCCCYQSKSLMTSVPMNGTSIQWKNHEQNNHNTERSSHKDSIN
Description: as §1, §2

[3] = target: T3, Endothelin-B Receptor (Homo sapiens, UniProt P24530); test: Endothelin Assay Test, [125I]endothelin-1 binding to insect cell (Sf9) membrane fraction expressing human ETB receptor; settings: human ETB receptor expressed, 25°C for 60 minutes, PMB = 50%, read-out: IC 50 Endothelin-B Receptor (human)
T3 construct: expressed in transfected cells; host or cells: Sf9 insect cells (membrane fraction)
T3 sequence (P24530 27-442): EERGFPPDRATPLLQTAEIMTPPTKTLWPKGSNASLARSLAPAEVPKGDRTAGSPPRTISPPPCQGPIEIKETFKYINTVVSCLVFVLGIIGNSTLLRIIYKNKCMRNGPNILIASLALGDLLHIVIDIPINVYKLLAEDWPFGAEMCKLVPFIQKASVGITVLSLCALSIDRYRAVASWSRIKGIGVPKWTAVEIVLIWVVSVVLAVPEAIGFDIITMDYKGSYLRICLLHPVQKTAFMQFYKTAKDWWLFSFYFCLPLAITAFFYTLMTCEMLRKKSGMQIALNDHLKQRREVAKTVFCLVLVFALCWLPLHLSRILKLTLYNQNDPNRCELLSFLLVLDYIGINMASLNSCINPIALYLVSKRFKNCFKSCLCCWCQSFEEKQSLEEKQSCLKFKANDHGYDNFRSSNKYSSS
Description: (§3) Endothelin (ET) receptors were prepared as follows. An insect cell (Sf9) membrane fraction wherein human endothelin-A (ETA) was expressed and that wherein endothelin-B (ETB) was expressed were diluted with an assay buffer [comprising 20 mM of Tris-HCl, 2 mM of EGTA (ethylene glycol bis(2-aminoethyl ether)tetraacetic acid), 5 mM of magnesium acetate, 0.1% of BSA (bovine serum albumin), 0.03% of NaN3, 0.5 mM of PMSF (phenylmethylsulfonyl fluoride), 20 micrograms/ml of leupeptin, 4 micrograms/ml of E-64 (manufactured by the Peptide Institute, Japan) and 1 microgram/ml of pepstatin; pH 7.2] to make 1.4 micrograms/ml and 0.7 microgram/ml for the insect cell (Sf 9) membrane fraction wherein a human ETA receptor was expressed and for that wherein a human ETB receptor was expressed, respectively. Each 100 microliters of them were taken out and 2 microliters of 5nM [^125I]endothelin-1 was added thereto. A dimethyl sulfoxide solution (3 microliters) of the sample was added thereto and the mixture was incubated at 25°C for 60 minutes. Further, in order to measure the maximum binding (B0) and the nonspecific binding (NSB), a lot to which […] or […] of 10^-5M of endothelin-1 in dimethyl sulfoxide was added was incubated as well. An assay buffer suspended with 0.05% CHAPS (3-[(3-cholamidopropyl)di-methylammonio]-1-propanesulfonate, 1.5 ml) was added and the mixture was filtered through a GF/F glass fiber filter (trade name of Whatman, England) followed by washing with 1.5 ml of the same buffer.
(§4) The radioactivity of the filter was counted by a γ -counter and determined PMB by the same way described in Test Example 1. The value wherein PMB = 50% was calculated and expressed as an IC50.

[4] = target: T4, Endothelin-A Receptor (Homo sapiens, UniProt P25101); test: Endothelin Assay Test, [125I]endothelin-1 binding to insect cell (Sf9) membrane fraction expressing human ETA receptor; settings: human ETA receptor expressed, 25°C for 60 minutes, PMB = 50%, read-out: IC 50 Endothelin-A Receptor (human)
T4 construct: expressed in transfected cells; host or cells: Sf9 insect cells (membrane fraction)
T4 sequence (P25101 21-427): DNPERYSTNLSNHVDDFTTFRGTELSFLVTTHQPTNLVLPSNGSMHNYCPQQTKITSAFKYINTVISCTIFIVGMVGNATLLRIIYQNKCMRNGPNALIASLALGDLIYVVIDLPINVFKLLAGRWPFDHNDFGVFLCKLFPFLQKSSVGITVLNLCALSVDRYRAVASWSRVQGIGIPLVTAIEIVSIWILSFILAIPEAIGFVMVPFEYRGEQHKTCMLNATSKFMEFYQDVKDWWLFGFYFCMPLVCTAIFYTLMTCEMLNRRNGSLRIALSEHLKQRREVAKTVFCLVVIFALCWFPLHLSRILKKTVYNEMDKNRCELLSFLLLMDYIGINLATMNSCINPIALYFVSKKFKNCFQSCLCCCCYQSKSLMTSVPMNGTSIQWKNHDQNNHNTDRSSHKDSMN
Description: as §3, §4

Work on `COc1cccc(Cn2c(=O)n(CC(=O)O)c(=O)c3cc(-c4ccccc4)sc32)c1` [Compound 99] yielded an IC50 [1] of 39000 nM and an IC50 [2] of 12000 nM.

For `COc1ccccc1Cn1c(=O)n(CC(=O)O)c(=O)c2c(C)c(-c3ccccc3)sc21` [Compound 102], the IC50 [1] was 7500 nM and the IC50 [2] was 1300 nM.

`COc1ccc(-c2sc3c(c2C)c(=O)n(CC(=O)O)c(=O)n3Cc2ccccc2OC)cc1` [Compound 105] was tested, and the IC50 [3] was 12000 nM and the IC50 [4] was 1900 nM.

`COc1ccc(-c2sc3c(c2C)c(=O)n(CC(=O)O)c(=O)n3Cc2ccccc2C)cc1` [Compound 111] gave an IC50 [3] of 14000 nM and an IC50 [4] of 1800 nM.

`COc1ccc(-c2sc3c(c2C)c(=O)n(CC(=O)O)c(=O)n3Cc2ccccc2SC)cc1` [Compound 115, 2,4(1H,3H)-dioxo-5-methyl-6-(4-methoxyphenyl)-1-(2-methylthiobenzyl)thieno[2,3-d]pyrimidine-3-acetic acid] gave an IC50 [3] of 6800 nM and an IC50 [4] of 710 nM.

Compound `COc1ccc(-c2sc3c(c2C)c(=O)n(CC(=O)O)c(=O)n3Cc2cc(OC)ccc2OC)cc1` [Compound 125] has an IC50 [3] of 26000 nM and an IC50 [4] of 2900 nM.

With `COc1ccccc1Cn1c(=O)n(CC(=O)O)c(=O)c2c(C)c(-c3ccc(OCCO)cc3)sc21` [Compound 130] the IC50 [3] was 12000 nM and the IC50 [4] was 1200 nM.

Compound `COCOc1ccc(-c2sc3c(c2C)c(=O)n(CC(=O)O)c(=O)n3Cc2ccccc2OC)cc1` [Compound 131, 2,4(1H,3H)-dioxo-5-methyl-6-(4-methoxymethoxyphenyl)-1-(2-methoxybenzyl)thieno[2,3-d]pyrimidine-3-acetic acid] has an IC50 [3] of 2400 nM and an IC50 [4] of 300 nM.

Work on `COc1ccccc1Cn1c(=O)n(CC(=O)O)c(=O)c2c(C)c(-c3ccc(OCSC)cc3)sc21` [Compound 140, 2,4(1H,3H)-dioxo-5-methyl-6-(4-methylthiomethoxyphenyl)-1-(2-methoxybenzyl)thieno[2,3-d]pyrimidine-3-acetic acid] yielded an IC50 [3] of 15000 nM and an IC50 [4] of 240 nM.

`COc1ccccc1Cn1c(=O)n(CC(=O)O)c(=O)c2c(C)c(-c3ccc(OCC(N)=O)cc3)sc21` [Compound 143] showed an IC50 [3] of 33000 nM and an IC50 [4] of 2500 nM.

`COCOc1ccc(-c2sc3c(c2C)c(=O)n(CC(=O)O)c(=O)n3Cc2ccccc2SC)cc1` [Compound 144, 2,4(1H,3H)-dioxo-5-methyl-6-(4-methoxymethoxyphenyl)-1-(2-methylthiobenzyl)thieno[2,3-d]pyrimidine-3-acetic acid] showed an IC50 [3] of 920 nM and an IC50 [4] of 85 nM.

`CSCOc1ccc(-c2sc3c(c2C)c(=O)n(CC(=O)O)c(=O)n3Cc2ccccc2SC)cc1` [Compound 145, 2,4(1H,3H)-dioxo-5-methyl-6-(4-methylthiomethoxyphenyl)-1-(2-methylthiobenzyl)thieno[2,3-d]pyrimidine-3-acetic acid] was tested, and the IC50 [3] was 660 nM and the IC50 [4] was 66 nM.

`CCCOc1ccc(-c2sc3c(c2C)c(=O)n(CC(=O)O)c(=O)n3Cc2ccccc2SC)cc1` [Compound 146, 2,4(1H,3H)-dioxo-5-methyl-1-(2-methylthiobenzyl)-6-(4-propoxyphenyl)thieno[2,3-d]pyrimidine-3-acetic acid] showed an IC50 [3] of 2600 nM and an IC50 [4] of 250 nM.

With `CSc1ccccc1Cn1c(=O)n(CC(=O)O)c(=O)c2c(C)c(-c3ccc(OCC(C)=O)cc3)sc21` [Compound 148, 2,4(1H,3H)-dioxo-5-methyl-1-(2-methylthiobenzyl)-6-[4-(2-oxopropoxy)phenyl]thieno[2,3-d]pyrimidine-3-acetic acid] the IC50 [3] was 7100 nM and the IC50 [4] was 400 nM.

For `CSc1ccccc1Cn1c(=O)n(CC(=O)O)c(=O)c2c(C)c(-c3ccc4c(c3)OCO4)sc21` [Compound 156], the IC50 [3] was 16000 nM and the IC50 [4] was 2600 nM.

For `CSc1ccccc1Cn1c(=O)n(CC(=O)O)c(=O)c2c(C)c(-c3ccc(-n4cccc4)cc3)sc21` [Compound 173, 2,4(1H,3H)-dioxo-1-(2-methylthiobenzyl)-6-[4-(1-pyrrolyl)phenyl]-5-methylthieno[2,3-d]pyrimidine-3-acetic acid], the IC50 [3] was 2500 nM and the IC50 [4] was 2100 nM.
